Test results published in ChEMBL document CHEMBL1932964, “Lead optimisation of pyrazoles as novel FPR1 antagonists” (Bioorg Med Chem Lett, 2012).
Values belong to the compound of their own block, whether it stands above or below them.

Key:
[1] = target: T1, fMet-Leu-Phe receptor (Homo sapiens, UniProt P21462); assay: Antagonist activity at human recombinant FPR1 in expressed in HEK293 cells assessed as inhibition of FMLP-stimulated intracellular calcium mobilisation after 1 hr by FLIPR assay; assay type: functional, cell-based
T1 sequence (P21462 whole entry): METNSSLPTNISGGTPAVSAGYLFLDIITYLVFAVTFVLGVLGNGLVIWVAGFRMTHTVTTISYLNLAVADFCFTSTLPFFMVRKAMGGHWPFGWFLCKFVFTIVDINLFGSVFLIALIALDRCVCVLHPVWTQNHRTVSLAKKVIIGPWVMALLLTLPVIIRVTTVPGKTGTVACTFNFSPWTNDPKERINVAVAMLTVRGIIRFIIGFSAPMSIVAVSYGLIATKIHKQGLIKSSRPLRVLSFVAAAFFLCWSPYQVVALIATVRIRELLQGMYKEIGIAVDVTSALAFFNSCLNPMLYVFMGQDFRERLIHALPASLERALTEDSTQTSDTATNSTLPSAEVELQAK

[2] = Intrinsic clearance in Sprague-Dawley rat hepatocytes assessed per 10^6 cells measured after 90 mins
[3] = target: T2, fMet-Leu-Phe receptor (Homo sapiens) (UniProt P21462); assay: Antagonist activity at human recombinant FPR1 in expressed in HEK293 cells assessed as inhibition of FMLP-stimulated intracellular calcium mobilisation at 30 uM after 1 hr by FLIPR assay; assay type: functional, cell-based
T2 sequence (whole entry): T1 sequence (P21462 whole entry)

[4] = Distribution coefficient, log D of compound; assay type: physicochemical; conditions: octanol/water
[5] = Thermodynamic solubility of compound by shake-flask technique; assay type: physicochemical; conditions: read-out: Therm_solubility
[6] = Fraction unbound in human plasma; assay type: ADME, cell-free
[7] = Fraction unbound in Sprague-Dawley rat plasma; assay type: ADME, cell-free; conditions: Sprague-Dawley
[8] = Volume of distribution at steady state in Sprague-Dawley rat at 2 mg/kg, iv; assay type: ADME, organism-based; design: dose 2 mg/kg, route intravenous; conditions: in vivo, read-out: Vdss
[9] = Oral bioavailability in Sprague-Dawley rat at 2 mg/kg; assay type: ADME, organism-based; conditions: in vivo
[10] = target: T1, fMet-Leu-Phe receptor; assay: Antagonist activity at FPR1 in human neutrophils assessed as AB/fMLF-stimulated upregulation of CD11b expression preincubated for 30 mins before AB/FMLF challenge measured after 50 mins using FITC staining by flow cytometry; assay type: functional; conditions: read-out: pA2 (converted)
[11] = system: THP-1; assay: Cytotoxicity against human THP1 cells; assay type: cell-based
[12] = target: T3, Cytochrome P450 1A2 (Homo sapiens, UniProt P05177); assay: Inhibition of CYP1A2; assay type: ADME
T3 sequence (P05177 whole entry): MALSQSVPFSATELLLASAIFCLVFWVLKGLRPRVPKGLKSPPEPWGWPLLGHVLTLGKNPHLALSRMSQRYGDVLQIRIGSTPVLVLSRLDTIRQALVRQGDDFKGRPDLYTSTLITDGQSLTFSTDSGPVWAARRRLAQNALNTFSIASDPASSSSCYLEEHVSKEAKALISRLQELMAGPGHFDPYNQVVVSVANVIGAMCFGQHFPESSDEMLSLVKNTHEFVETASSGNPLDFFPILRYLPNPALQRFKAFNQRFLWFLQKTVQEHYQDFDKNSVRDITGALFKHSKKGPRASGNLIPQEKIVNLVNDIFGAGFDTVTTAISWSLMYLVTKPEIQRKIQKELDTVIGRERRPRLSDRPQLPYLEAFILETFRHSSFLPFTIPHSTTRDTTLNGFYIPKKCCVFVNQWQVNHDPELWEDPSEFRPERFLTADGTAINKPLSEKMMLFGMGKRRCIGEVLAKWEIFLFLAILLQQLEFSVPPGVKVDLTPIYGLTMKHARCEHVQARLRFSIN

[13] = target: Cytochrome P450 2C9 (Homo sapiens, UniProt P11712); assay: Inhibition of CYP2C9; assay type: ADME
Cytochrome P450 2C9, sequence (P11712 whole entry): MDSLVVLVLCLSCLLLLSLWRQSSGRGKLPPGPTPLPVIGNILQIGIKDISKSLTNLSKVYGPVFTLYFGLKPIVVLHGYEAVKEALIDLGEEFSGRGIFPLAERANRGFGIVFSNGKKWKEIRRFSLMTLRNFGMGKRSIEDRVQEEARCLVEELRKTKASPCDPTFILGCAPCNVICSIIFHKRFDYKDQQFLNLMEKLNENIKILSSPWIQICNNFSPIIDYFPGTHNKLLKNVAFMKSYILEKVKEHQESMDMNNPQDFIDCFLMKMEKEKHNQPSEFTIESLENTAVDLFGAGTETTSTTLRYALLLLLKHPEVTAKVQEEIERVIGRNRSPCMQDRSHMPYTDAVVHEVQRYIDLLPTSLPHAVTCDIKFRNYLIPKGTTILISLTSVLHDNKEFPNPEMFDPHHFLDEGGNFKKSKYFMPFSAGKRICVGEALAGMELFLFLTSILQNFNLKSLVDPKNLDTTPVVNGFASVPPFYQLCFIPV

[14] = target: Cytochrome P450 2C19 (Homo sapiens, UniProt P33261); assay: Inhibition of CYP2C19; assay type: ADME
Cytochrome P450 2C19, sequence (P33261 whole entry): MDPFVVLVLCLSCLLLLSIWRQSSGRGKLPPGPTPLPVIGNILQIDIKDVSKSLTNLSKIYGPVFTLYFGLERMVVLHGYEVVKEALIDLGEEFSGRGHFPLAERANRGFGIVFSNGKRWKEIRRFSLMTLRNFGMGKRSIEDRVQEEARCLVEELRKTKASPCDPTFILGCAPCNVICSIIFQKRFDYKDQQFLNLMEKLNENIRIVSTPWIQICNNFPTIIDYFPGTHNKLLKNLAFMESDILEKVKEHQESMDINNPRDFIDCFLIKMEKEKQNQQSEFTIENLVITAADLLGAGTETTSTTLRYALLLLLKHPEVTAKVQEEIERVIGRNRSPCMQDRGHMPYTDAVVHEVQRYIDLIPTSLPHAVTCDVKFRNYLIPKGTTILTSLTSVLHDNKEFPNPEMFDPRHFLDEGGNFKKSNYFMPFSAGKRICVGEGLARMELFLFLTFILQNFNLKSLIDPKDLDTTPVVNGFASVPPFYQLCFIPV

[15] = target: Cytochrome P450 2D6 (Homo sapiens, UniProt P10635); assay: Inhibition of CYP2D6; assay type: ADME
Cytochrome P450 2D6, sequence (P10635 whole entry): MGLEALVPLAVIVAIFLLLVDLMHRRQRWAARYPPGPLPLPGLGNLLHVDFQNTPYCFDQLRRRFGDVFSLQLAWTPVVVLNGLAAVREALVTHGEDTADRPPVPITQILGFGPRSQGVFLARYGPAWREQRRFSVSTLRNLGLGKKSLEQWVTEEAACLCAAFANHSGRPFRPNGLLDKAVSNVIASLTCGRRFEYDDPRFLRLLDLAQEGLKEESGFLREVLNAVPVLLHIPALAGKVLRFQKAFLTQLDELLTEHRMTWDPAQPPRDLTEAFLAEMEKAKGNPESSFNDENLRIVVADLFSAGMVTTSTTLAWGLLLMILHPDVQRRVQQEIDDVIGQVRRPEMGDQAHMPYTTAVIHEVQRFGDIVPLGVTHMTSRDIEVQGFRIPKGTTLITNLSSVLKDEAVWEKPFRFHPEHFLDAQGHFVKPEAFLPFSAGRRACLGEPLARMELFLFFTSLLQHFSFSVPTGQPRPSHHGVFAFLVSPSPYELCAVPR

[16] = target: Cytochrome P450 3A4 (Homo sapiens, UniProt P08684); assay: Inhibition of CYP3A4; assay type: ADME
Cytochrome P450 3A4, sequence (P08684 whole entry): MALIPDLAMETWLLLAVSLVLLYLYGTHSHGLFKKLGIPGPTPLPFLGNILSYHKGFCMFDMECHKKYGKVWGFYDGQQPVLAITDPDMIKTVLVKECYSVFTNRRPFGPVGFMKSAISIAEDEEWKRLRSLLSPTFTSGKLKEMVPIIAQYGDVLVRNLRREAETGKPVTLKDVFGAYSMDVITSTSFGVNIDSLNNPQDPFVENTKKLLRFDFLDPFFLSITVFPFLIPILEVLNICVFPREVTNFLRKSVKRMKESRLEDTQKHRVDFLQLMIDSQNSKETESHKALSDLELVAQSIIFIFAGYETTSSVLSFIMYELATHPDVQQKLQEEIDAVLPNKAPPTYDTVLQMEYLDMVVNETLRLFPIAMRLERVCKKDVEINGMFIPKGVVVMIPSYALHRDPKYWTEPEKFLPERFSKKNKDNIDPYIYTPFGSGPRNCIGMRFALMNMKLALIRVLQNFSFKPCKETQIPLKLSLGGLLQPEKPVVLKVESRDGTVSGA

[17] = Time dependent inhibition of CYP; assay type: ADME
[18] = Intrinsic clearance in human liver microsomes measured after 45 mins post NADPH addition
[19] = Intrinsic clearance in human hepatocytes assessed per 10^6 cells measured after 90 mins
[20] = […] pKa of the compound; assay type: physicochemical
[21] = Ratio of drug level in blood to plasma in Sprague-Dawley rat; assay type: ADME
[22] = system: Liver; assay: Intrinsic clearance in rat liver microsomes assessed as media loss of parent compound per million cells
[23] = Clearance in Sprague-Dawley rat at 2 mg/kg, iv; conditions: in vivo
[24] = Half life in Sprague-Dawley rat at 2 mg/kg, iv; conditions: in vivo
[25] = Plasma clearance in bile duct cannulated Sprague-Dawley rat; assay type: ADME, organism-based

inhibition [3]: < 30%
Compound: CO[C@H]1CC[C@H](n2nc(C)c(C(=O)N[C@@H](C)C(C)(C)C)c2NS(=O)(=O)c2ccc(C)cc2)CC1

IC50 [1]: 39.8 nM
Compound: Cc1ccc(S(=O)(=O)Nc2c(C(=O)N[C@@H](C)C(C)(C)C)c(C)nn2C2CCSCC2)cc1

IC50 [1]: 31.6 nM
hepatocyte CLint at […] [2]: 8 µL/min/1e6 cells
CLH [22]: 23 µL/min
Compound: Cc1ccc(S(=O)(=O)Nc2c(C(=O)N[C@@H](C)C(C)(C)C)c(C)nn2C2CCCCC2)cc1

IC50 [1]: 316 nM
Compound: Cc1ccc(S(=O)(=O)Nc2c(C(=O)N[C@@H](C)C(C)(C)C)c(C)nn2C2CCOCC2)cc1

The remaining lines, values behind:

Compound: COCCC(C)n1nc(C)c(C(=O)N[C@@H](C)C(C)(C)C)c1NS(=O)(=O)c1ccc(C)cc1 (some centres not stated)
IC50 [1]: 316 nM
hepatocyte CLint at […] [2]: 10 µL/min/1e6 cells

Compound: Cc1nn(C2CCOCC2)c(NS(=O)(=O)c2ccc(C3CC3)cc2)c1C(=O)N[C@@H](C)C(C)(C)C
IC50 [1]: 158 nM
logD [4]: 1.2
solubility thermodynamic [5]: > 2800 µM
fraction unbound [6]: 0.075
fraction unbound [7]: 0.111
Vd [8]: 0.5 L/kg
bioavailability [9]: 83%
Kb [10]: 794 nM
IC50 [11]: > 50100 nM
IC50 [12]: > 10000 nM
IC50 [13]: > 10000 nM
IC50 [14]: > 10000 nM
IC50 [15]: > 10000 nM
IC50 [16]: > 10000 nM
pIC50 [17]: < 5

Compound: Cc1ccc(S(=O)(=O)Nc2c(C(=O)N[C@@H](C)C(C)(C)C)c(C)nn2C2CCOC2)cc1 (some centres not stated)
IC50 [1]: 1000 nM

Compound: CCC(CC)n1nc(C)c(C(=O)N[C@@H](C)C(C)(C)C)c1NS(=O)(=O)c1ccc(C)cc1
IC50 [1]: 398 nM

Compound: Cc1nn(-c2ccc(F)cc2)c(NS(=O)(=O)c2ccc(C#N)cc2)c1C(=O)N[C@@H](C)C(C)(C)C
microsomal CLint at 0.75 h [18]: 5 µL/min/mg
hepatocyte CLint at […] [19]: < 3 µL/min/1e6 cells
hepatocyte CLint at […] [2]: < 4 µL/min/1e6 cells
pKa [20]: 3
solubility thermodynamic [5]: > 2010 µM
fraction unbound [6]: 0.08
fraction unbound [7]: 0.043
blood plasma ratio [21]: 0.7
CLH [22]: 33 µL/min
clearance [23]: 42 mL/min/kg
half-life [24]: 36 min
Vd [8]: 0.23 L/kg
bioavailability [9]: 5%
clearance [25]: 21 mL/min/kg

Compound: Cc1ccc(S(=O)(=O)Nc2c(C(=O)N[C@@H](C)C(C)(C)C)c(C)nn2CC(F)(F)F)cc1
IC50 [1]: 3160 nM
hepatocyte CLint at […] [2]: 74 µL/min/1e6 cells
CLH [22]: 18 µL/min
